Test system: monocistronic NK5.1 HCV replicon in Huh7 cells
Experiment: HCV replicon assay, monocistronic replicon cell line
Assay type: cell-based, hepatitis C virus
Conditions: Hepatitis C virus, Huh-7, 72 h; table T3 (compounds 471-640); monocistronic replicon in Huh7 cells, 3 days incubation, HCV RNA/GAPDH RNA by TaqMan RT-PCR; read-out: Mono EC50 Median
How it was run: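 EC50 derives from the HCV RNA/GAPDH RNA ratio by one-step TaqMan RT-PCR, relative to DMSO-only wells. Compounds (six half-log concentrations, 0.6% DMSO) were incubated 3 days at 37 °C with NK5.1 monocistronic replicon Huh7 cells plated a day earlier.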

| Compound | EC50 [µM] |
| --- | --- |
| FC(F)(F)c1ccncc1-c1n[nH]c(-c2ccccc2Br)n1 [Compound 473, 3-[5-(2-Bromo-phenyl)-1H-[1,2,4]triazol-3-yl]-4-trifluoromethyl-pyridine] | > 32 |
| FC(F)(F)c1ccncc1-c1n[nH]c(-c2cccc(Br)c2)n1 [Compound 474, 3-[5-(3-Bromo-phenyl)-1H-[1,2,4]triazol-3-yl]-4-trifluoromethyl-pyridine] | > 32 |
| Fc1ccccc1-c1nc(-c2cnccc2C(F)(F)F)n[nH]1 [Compound 475, 3-[5-(2-Fluoro-phenyl)-1H-[1,2,4]triazol-3-yl]-4-trifluoromethyl-pyridine] | > 32 |
| FC(F)(F)c1ccncc1-c1n[nH]c(-c2ccccc2Cl)n1 [Compound 476, 3-[5-(2-Chloro-phenyl)-1H-[1,2,4]triazol-3-yl]-4-trifluoromethyl-pyridine] | > 32 |
| FC(F)(F)c1ccncc1-c1n[nH]c(-c2c(Cl)cccc2Cl)n1 [Compound 477, 3-[5-(2,6-Dichloro-phenyl)-1H-[1,2,4]triazol-3-yl]-4-trifluoromethyl-pyridine] | > 32 |
| Fc1cccc(F)c1-c1nc(-c2cnccc2C(F)(F)F)n[nH]1 [Compound 478, 3-[5-(2,6-Difluoro-phenyl)-1H-[1,2,4]triazol-3-yl]-4-trifluoromethyl-pyridine] | > 32 |
| Fc1cccc(Cl)c1-c1nc(-c2cnccc2C(F)(F)F)n[nH]1 [Compound 479, 3-[5-(2-Fluoro-6-chloro-phenyl)-1H-[1,2,4]triazol-3-yl]-4-trifluoromethyl-pyridine] | > 32 |
| O=[N+]([O-])c1cccc(-c2nc(-c3cnccc3C(F)(F)F)n[nH]2)c1 [Compound 480, 3-[5-(3-Nitro-phenyl)-1H-[1,2,4]triazol-3-yl]-4-trifluoromethyl-pyridine] | > 32 |
| COc1ccc(F)c(-c2nc(-c3cnccc3C(F)(F)F)n[nH]2)c1 [Compound 481, 3-[5-(2-Fluoro-5-methoxy-phenyl)-1H-[1,2,4]triazol-3-yl]-4-trifluoromethyl-pyridine] | > 32 |
| Oc1ccc2ccccc2c1-c1nc(-c2ccccn2)n[nH]1 [Compound 482, 1-(5-Pyridin-2-yl-2H-[1,2,4]triazol-3-yl)-naphthalen-2-ol] | > 19 |
| Brc1cccnc1-c1n[nH]c(-c2cccc3ccccc23)n1 [Compound 483, 3-Bromo-2-(5-naphthalen-1-yl-1H-[1,2,4]triazol-3-yl)-pyridine] | > 32 |
| CC(C)(C)c1ccc(O)c(-c2nc(-c3ncccc3Br)n[nH]2)c1 [Compound 484, 2-[5-(3-Bromo-pyridin-2-yl)-2H-[1,2,4]triazol-3-yl]-4-tert-butyl-phenol] | 7.2 |
| O=[N+]([O-])c1ccc(O)c(-c2nc(-c3ncccc3Br)n[nH]2)c1 [Compound 485, 2-[5-(3-Bromo-pyridin-2-yl)-2H-[1,2,4]triazol-3-yl]-4-Nitro-phenol] | > 19 |
| Oc1ccc(F)cc1-c1nc(-c2ncccc2Br)n[nH]1 [Compound 486, 2-[5-(3-Bromo-pyridin-2-yl)-2H-[1,2,4]triazol-3-yl]-4-Fluoro-phenol] | 7.4 |
| COc1ccc(O)c(-c2nc(-c3ncccc3Br)n[nH]2)c1 [Compound 487, 2-[5-(3-Bromo-pyridin-2-yl)-2H-[1,2,4]triazol-3-yl]-4-Methoxy-phenol] | > 32 |
| Oc1ccc(Cl)cc1-c1nc(-c2ncccc2Br)n[nH]1 [Compound 488, 2-[5-(3-Bromo-pyridin-2-yl)-2H-[1,2,4]triazol-3-yl]-4-Chloro-phenol] | 2.7 |
| CCOc1cccc(-c2nc(-c3ncccc3Br)n[nH]2)c1O [Compound 489, 2-[5-(3-Bromo-pyridin-2-yl)-2H-[1,2,4]triazol-3-yl]-6-Ethoxy-phenol] | 22 |

| Compound | EC50 [µM] |
| --- | --- |
| Oc1cc(OCc2ccccc2)ccc1-c1nc(-c2ncccc2Br)n[nH]1 [Compound 490, 2-[5-(3-Bromo-pyridin-2-yl)-2H-[1,2,4]triazol-3-yl]-5-Benzyloxy-phenol] | 7 |
| Fc1cc(-c2nc(-c3ncccc3Br)n[nH]2)ccc1-c1ccccc1 [Compound 491, 3-Bromo-2-[5-(2-Fluoro-biphenyl-4-yl)-1H-[1,2,4]triazol-3-yl]-pyridine] | 2.3 |
| Oc1ccc(Br)cc1-c1nc(-c2ncccc2Br)n[nH]1 [Compound 492, 2-[5-(3-Bromo-pyridin-2-yl)-2H-[1,2,4]triazol-3-yl]-4-Bromo-phenol] | 5.4 |
| Cc1ccc(O)c(-c2nc(-c3ncccc3Br)n[nH]2)c1 [Compound 493, 2-[5-(3-Bromo-pyridin-2-yl)-2H-[1,2,4]triazol-3-yl]-4-Methyl-phenol] | 16 |
| COc1ccc(-c2nc(-c3ncccc3Br)n[nH]2)c(O)c1 [Compound 494, 2-[5-(3-Bromo-pyridin-2-yl)-2H-[1,2,4]triazol-3-yl]-5-Methoxy-phenol] | > 32 |
| Oc1ccccc1-c1nc(-c2ncccc2Br)n[nH]1 [Compound 495, 2-[5-(3-Bromo-pyridin-2-yl)-2H-[1,2,4]triazol-3-yl]-phenol] | 15 |
| COc1cccc(-c2nc(-c3ncccc3Br)n[nH]2)c1O [Compound 496, 2-[5-(3-Bromo-pyridin-2-yl)-2H-[1,2,4]triazol-3-yl]-6-Methoxy-phenol] | > 32 |
| O=[N+]([O-])c1cccc(-c2nc(-c3ncccc3Br)n[nH]2)c1 [Compound 497, 3-Bromo-2-[5-(3-nitro-phenyl)-1H-[1,2,4]triazol-3-yl]-pyridine] | > 32 |
| CCN(CC)c1ccc(-c2nc(-c3ncccc3Br)n[nH]2)c(O)c1 [Compound 498, 2-[5-(3-Bromo-pyridin-2-yl)-2H-[1,2,4]triazol-3-yl]-5-Diethylamino-phenol] | 5.8 |
| Oc1ccc(O)c(-c2nc(-c3ncccc3Br)n[nH]2)c1 [Compound 499, 2-[5-(3-Bromo-pyridin-2-yl)-2H-[1,2,4]triazol-3-yl]-4-Hydroxy-phenol] | 6.2 |
| COc1cccc(-c2nc(-c3ncccc3Br)n[nH]2)c1 [Compound 500, 3-Bromo 2-[5-(3-Methoxy-phenyl)-1H-[1,2,4]triazol-3-yl]-pyridine] | > 32 |
| COc1ccc(F)c(-c2nc(-c3ncccc3Br)n[nH]2)c1 [Compound 501, 3-Bromo-2-[5-(2-Fluoro-5-methoxy-phenyl)-1H-[1,2,4]triazol-3-yl]-pyridine] | > 32 |
| CC(C)c1ccc(-c2nc(-c3ncccc3Br)n[nH]2)cc1 [Compound 502, 3-Bromo-2-[5-(4-isopropyl-phenyl)-1H-[1,2,4]triazol-3-yl]-pyridine] | 12 |
| Oc1ccc2ccccc2c1-c1nc(-c2ncccc2Br)n[nH]1 [Compound 503, 1-(5-(3-Bromo-pyridin-2-yl)-2H-[1,2,4]triazol-3-yl)-naphthalen-2-ol] | 6.9 |
| Cc1cccnc1-c1n[nH]c(-c2ccccc2Br)n1 [Compound 504, 2-[5-(2-Bromo-phenyl)-1H-[1,2,4]triazol-3-yl]-3-mehtyl-pyridine] | 7.3 |
| Cc1cccnc1-c1n[nH]c(-c2cccc(Br)c2)n1 [Compound 505, 2-[5-(3-Bromo-phenyl)-1H-[1,2,4]triazol-3-yl]-3-methyl-pyridine] | 4 |
| FC(F)(F)c1ccc(-c2n[nH]c(-c3cccc4ccccc34)n2)nc1 [Compound 506, 2-(5-Naphthalen-1-yl-1H-[1,2,4]triazol-3-yl)-5-trifluoromethyl-pyridine] | > 19 |
